In patent US20260041704A1, “COMPOSITIONS AND METHODS FOR TREATING SICKLE CELL DISEASE” (Beren Therapeutics P.B.C., priority 2022, published 2026):

Key:
Assay type in all cases: cell-based, human
[1] = test system: RBCs from sickle cell disease patients (SS); experiment: Free hemoglobin assay (Drabkin's reagent) in supernatants, RBCs from sickle cell patients; settings: 1 h incubation
[2] = test system: RBCs from sickle cell disease patients (SS); experiment: Red blood cell deformability by ektacytometry (LORRCA), RBCs from sickle cell patients
From the text: (§1) Subjects and blood preparation: 17 sickle cell patients (24.1 +/-12.1 years old) and 6 healthy individuals (26 +/−3.9 years old) were included in this study. 12 sickle cell patients were at steady state at the time of inclusion and 5 had vaso-occlusive crisis the day of inclusion. 14 patients were under hydroxyurea therapy. Blood was drawn into EDTA tubes, centrifuged, and plasma and buffy coat were removed and kept until utilization. RBCs were washed in PBS 1X (Phosphate Buffered Saline, 1X Solution) and resuspended at hematocrit 20% either in PBS 1X or in autologous plasma. Then RBCs were incubated for 1 h at 37° C, with 3 or 5 mM 2-HPBCD or vehicle for control condition (Ctrl). The vehicle for control condition was the PBS IX or plasma respectively, i.e., without addition of the 2-HPBCD.
Red blood cell deformability: RBC deformability was assessed at 37° C, at shear stresses ranging from 0.3 to 30 Pa by laser diffraction analysis (ektacytometry), using a Laser-assisted Optical Rotational Cell Analyzer (LORRCA MaxSis, RR Mechatronics. Hoorn. The Netherlands). 10 μL of RBC suspensions were mixed with 1 ml polyvinylpyrrolidone (PVP: viscosit≈30 cP) and sheared into a Couette system. A laser beam was directed through the samples. The shear stress-induced deformation of RBCs affected the laser beam's diffraction pattern, which was measured by the LORRCA software, and used to calculate an elongation index. A higher elongation index represents greater RBC deformability. The Lineweaver-Burke method was used to calculate the maximum elongation index at infinite shear stress (EImax) and the shear stress required to reach half of this maximum elongation index (SS1/2).
Statistical analysis: effects of treatments on deformability parameters (EImax and SS1/2) and free hemoglobin concentration were analyzed by using a paired t-test or Wilcoxon test when appropriate. Comparisons of RBC deformability between healthy individuals and patients were achieved using Student's t-test. A p value<0.05 was considered as significant. Analyses were performed with Graphpad Prism 9 software.

[3] = test system: RBCs from healthy individuals (AA); experiment: Red blood cell deformability by ektacytometry (LORRCA), RBCs from healthy individuals; settings: 5 mM 2-HPBCD, 1 h at 37° C, RBCs from healthy controls (AA) in PBS
From the text: as §1, with “The vehicle for control condition was the PBS IX or plasma respectively, i.e., without addition of the 2-HPBCD.” left out
Red blood cell deformability: RBC deformability was assessed at 37° C, at shear stresses ranging from 0.3 to 30 Pa by laser diffraction analysis (ektacytometry), using a Laser-assisted Optical Rotational Cell Analyzer (LORRCA MaxSis, RR Mechatronics. Hoorn. The Netherlands). […] The shear stress-induced deformation of RBCs affected the laser beam's diffraction pattern, which was measured by the LORRCA software, and used to calculate an elongation index. […]
Statistical analysis: effects of treatments on deformability parameters (EImax and SS1/2) and free hemoglobin concentration were analyzed by using a paired t-test or Wilcoxon test when appropriate. […]

[4] = test system: RBCs from healthy individuals (AA); experiment: Free hemoglobin assay (Drabkin's reagent) in supernatants, RBCs from healthy individuals; settings: 5 mM 2-HPBCD, 1 h incubation, RBCs from healthy control individuals (AA) in PBS, FIG. 4

## CC(O)COC[C@H]1O[C@@H]2O[C@H]3[C@H](O)[C@@H](O)[C@@H](O[C@H]4[C@H](O)[C@@H](O)[C@@H](O[C@H]5[C@H](O)[C@@H](O)[C@@H](O[C@H]6[C@H](O)[C@@H](O)[C@@H](O[C@H]7[C@H](O)[C@@H](O)[C@@H](O[C@H]8[C@H](O)[C@@H](O)[C@@H](O[C@H]1[C@H](O)[C@H]2O)O[C@@H]8COCC(C)O)O[C@@H]7COCC(C)O)O[C@@H]6COCC(C)O)O[C@@H]5COCC(C)O)O[C@@H]4COCC(C)O)O[C@@H]3COCC(C)O (stereo partly drawn) [2-HPBCD, 2-hydroxypropyl-β-cyclodextrin]
[1]; 3 mM 2-HPBCD, RBCs from sickle cell disease patients in PBS, p<0.05, FIG. 6A
  effect on free hemoglobin released by RBCs: significantly decreased
[1]; 5 mM 2-HPBCD, RBCs from sickle cell anemia patients in PBS, p<0.05, FIG. 5A
  change of free hemoglobin released by RBCs vs control: −6.4%
[1]; 5 mM 2-HPBCD, SS RBCs with high basal free hemoglobin content in PBS, p<0.01, FIG. 5B
  change of free hemoglobin released by RBCs vs control, patients with low basal free hemoglobin removed: −29.9%
[2]; 3 mM or 5 mM 2-HPBCD
  effect on deformability of SCD RBCs: increased deformability
[2]; 5 mM 2-HPBCD, 1 h at 37° C, incubated in PBS, p<0.01, FIG. 2A
  change of sickle cell RBCs EImax vs control: +12.7%
[2]; 5 mM 2-HPBCD, 1 h at 37° C, incubated in PBS, p<0.5 as printed, FIG. 2B
  change of sickle cell RBC SS1/2 vs control: −8.1%
[2]; 5 mM 2-HPBCD, 1 h at 37° C, incubated in plasma, FIG. 2D
  effect on SS1/2 in sickle cell RBCs: did not significantly change
[2]; 5 mM 2-HPBCD, 1 h at 37° C, incubated in plasma, p<0.01, FIG. 2C
  change of sickle cell RBC EImax vs control: +12.4%
[3]; FIG. 1B
  effect on SS1/2 (printed SSin): no significant effect
[3]; p<0.05, FIG. 1A
  change of RBC EImax vs control: +4.4%
[4]
  effect on free hemoglobin release in the supernatant: no significant effect
